ChEMBL document CHEMBL1201862, “PubChem BioAssay data set” (2004)
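Tested at 5 concentrations; 48 h exposure; 96-well plates; endpoints linearly interpolated, else capped at highest concentration. GI50 is the concentration that inhibits growth by half.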 Calls of active or inactive are those of the source. Rule as the data show it: active = GI50 up to about 1.1 µM and inactive = higher.

Assays:
Assay in all cases: inhibition of tumour cell growth, NCI panel, 48 h
HT-29 = tested on: HT-29
SK-OV-3 = tested on: SK-OV-3
SF-268 = tested on: SF-268
CCRF-CEM = tested on: CCRF-CEM
RXF 393 = tested on: RXF 393
EKVX = tested on: EKVX
RPMI-8226 = tested on: RPMI-8226
COLO 205 = tested on: COLO 205
HOP-92 = tested on: HOP-92
SK-MEL-2 = tested on: SK-MEL-2
HCT-116 = tested on: HCT-116
PC-3 = tested on: PC-3
MDA-MB-435 = tested on: MDA-MB-435
K562 = tested on: K562
CAKI-1 = tested on: CAKI-1
ACHN = tested on: ACHN
TK-10 = tested on: TK-10
OVCAR-8 = tested on: OVCAR-8
NCI-H226 = tested on: NCI-H226
SF-539 = tested on: SF-539

| Structure (SMILES) | GI50 (HT-29) | GI50 (SK-OV-3) | GI50 (SF-268) | GI50 (CCRF-CEM) | GI50 (RXF 393) | GI50 (EKVX) | GI50 (RPMI-8226) | GI50 (COLO 205) | GI50 (HOP-92) | GI50 (SK-MEL-2) | GI50 (HCT-116) | GI50 (PC-3) | GI50 (MDA-MB-435) | GI50 (K562) | GI50 (CAKI-1) | GI50 (ACHN) | GI50 (TK-10) | GI50 (OVCAR-8) | GI50 (NCI-H226) | GI50 (SF-539) |
| --- | --- | --- | --- | --- | --- | --- | --- | --- | --- | --- | --- | --- | --- | --- | --- | --- | --- | --- | --- | --- |
| O=C1/C(=C/c2ccccc2S)N=C(c2ccccc2)N1c1nc2ccc(Sc3ccccc3)cc2[nH]1 | 20.2 µM (inactive) | 43.1 µM (inactive) | 38.3 µM (inactive) | 21 µM (inactive) | 28.2 µM (inactive) | 46.6 µM (inactive) | 23.9 µM (inactive) | 20.4 µM (inactive) | 81.3 µM (inactive) | 17.8 µM (inactive) | 33.4 µM (inactive) | 32.2 µM (inactive) | 12.4 µM (inactive) | 24.1 µM (inactive) | 34.1 µM (inactive) | 50.5 µM (inactive) | 27 µM (inactive) | 34.5 µM (inactive) | – | – |
| CC(=O)c1cc(C)n2c1CS[C@@H]2c1ccccc1 | 46.3 µM (inactive) | > 100 µM (inactive) | 90.2 µM (inactive) | 16.3 µM (inactive) | 31.5 µM (inactive) | 34.9 µM (inactive) | 7.85 µM (inactive) | 12.2 µM (inactive) | 20.2 µM (inactive) | 98.9 µM (inactive) | 30.8 µM (inactive) | 33.3 µM (inactive) | 27.3 µM (inactive) | 31.6 µM (inactive) | 70.5 µM (inactive) | 68.2 µM (inactive) | 91 µM (inactive) | 70.8 µM (inactive) | 41 µM (inactive) | – |
| Oc1nc(-c2cccc(F)c2)nc2ccccc12 | > 100 µM (inactive) | 28.7 µM (inactive) | 27.1 µM (inactive) | > 21.3 µM (inactive) | 29.9 µM (inactive) | > 67.3 µM (inactive) | – | > 100 µM (inactive) | 30.7 µM (inactive) | 41 µM (inactive) | 27.2 µM (inactive) | 55.5 µM (inactive) | > 86.1 µM (inactive) | 0.461 µM (active) | > 100 µM (inactive) | 31.1 µM (inactive) | 34.6 µM (inactive) | 29.8 µM (inactive) | > 100 µM (inactive) | – |
| COc1ccc2nccc(SCC(=O)O)c2c1 | > 100 µM (inactive) | – | > 100 µM (inactive) | > 100 µM (inactive) | > 100 µM (inactive) | > 100 µM (inactive) | > 100 µM (inactive) | – | > 100 µM (inactive) | > 100 µM (inactive) | > 100 µM (inactive) | > 100 µM (inactive) | > 100 µM (inactive) | > 100 µM (inactive) | > 100 µM (inactive) | > 100 µM (inactive) | > 100 µM (inactive) | > 100 µM (inactive) | > 100 µM (inactive) | – |
| CCOC(=O)CSc1[nH]c2nc(C)nc(Cl)c2c1C#N | > 10 µM (inactive) | > 10 µM (inactive) | > 10 µM (inactive) | > 10 µM (inactive) | > 10 µM (inactive) | > 10 µM (inactive) | > 10 µM (inactive) | > 10 µM (inactive) | > 10 µM (inactive) | – | – | > 10 µM (inactive) | > 10 µM (inactive) | > 10 µM (inactive) | > 10 µM (inactive) | – | > 10 µM (inactive) | > 10 µM (inactive) | – | – |
| COc1cc(/C=C2/SC(c3ccccc3)N(c3cc(Cl)ccc3Cl)C2=O)cc(OC)c1OC (centres undefined) | > 100 µM (inactive) | > 100 µM (inactive) | – | 38.5 µM (inactive) | 45.8 µM (inactive) | 84.9 µM (inactive) | 23.8 µM (inactive) | > 100 µM (inactive) | > 100 µM (inactive) | > 100 µM (inactive) | 46.3 µM (inactive) | 65.5 µM (inactive) | 22.3 µM (inactive) | 59 µM (inactive) | 23.2 µM (inactive) | > 100 µM (inactive) | > 100 µM (inactive) | > 100 µM (inactive) | > 100 µM (inactive) | – |
| COc1cc(/C=C2/C(=O)N(C(=O)c3ccccc3O)N=C2C)cc(OC)c1OC | 34.4 µM (inactive) | 2.47 µM (inactive) | 8.59 µM (inactive) | 1.77 µM (inactive) | 0.192 µM (active) | 5.5 µM (inactive) | > 22.2 µM (inactive) | 34.4 µM (inactive) | 1.07 µM (active) | 1.44 µM (inactive) | 0.358 µM (active) | 6.93 µM (inactive) | 0.863 µM (active) | 0.393 µM (active) | – | 0.92 µM (active) | 9.79 µM (inactive) | 1.67 µM (inactive) | 6.21 µM (inactive) | 0.839 µM (active) |
| COc1ccccc1N1CCN(Cn2c(=O)oc3cccnc32)CC1 | > 100 µM (inactive) | > 100 µM (inactive) | > 100 µM (inactive) | 66.7 µM (inactive) | > 100 µM (inactive) | > 100 µM (inactive) | > 100 µM (inactive) | – | > 100 µM (inactive) | > 100 µM (inactive) | 56.4 µM (inactive) | > 100 µM (inactive) | > 100 µM (inactive) | > 100 µM (inactive) | > 100 µM (inactive) | > 100 µM (inactive) | > 100 µM (inactive) | > 100 µM (inactive) | – | > 100 µM (inactive) |
| [N-]=[N+]=NC1=C(c2ccccc2)C(=O)c2cccc3cccc1c23 | 6.56 µM (inactive) | 25.8 µM (inactive) | 22.3 µM (inactive) | 4.85 µM (inactive) | 19.7 µM (inactive) | – | 7 µM (inactive) | > 100 µM (inactive) | 17.7 µM (inactive) | 65 µM (inactive) | 5.48 µM (inactive) | 8.26 µM (inactive) | 68.4 µM (inactive) | 7.13 µM (inactive) | 33.6 µM (inactive) | 6.01 µM (inactive) | 23.2 µM (inactive) | – | – | 16.1 µM (inactive) |
| CCSC12OC3(CCCCCN3C1=O)C1C(=O)N(c3ccccc3)C(=O)C12 (centres undefined) | > 100 µM (inactive) | > 100 µM (inactive) | > 100 µM (inactive) | > 100 µM (inactive) | > 100 µM (inactive) | > 100 µM (inactive) | – | > 100 µM (inactive) | > 100 µM (inactive) | > 100 µM (inactive) | > 100 µM (inactive) | > 100 µM (inactive) | > 100 µM (inactive) | > 100 µM (inactive) | > 100 µM (inactive) | > 100 µM (inactive) | > 100 µM (inactive) | > 100 µM (inactive) | > 100 µM (inactive) | > 100 µM (inactive) |
| CN1N=C(c2ccncc2)OC1c1ccccc1F (centres undefined) | > 100 µM (inactive) | > 100 µM (inactive) | > 100 µM (inactive) | > 100 µM (inactive) | > 100 µM (inactive) | > 100 µM (inactive) | > 100 µM (inactive) | > 100 µM (inactive) | > 100 µM (inactive) | > 100 µM (inactive) | > 100 µM (inactive) | > 100 µM (inactive) | > 100 µM (inactive) | > 100 µM (inactive) | – | > 100 µM (inactive) | > 100 µM (inactive) | > 100 µM (inactive) | 73.1 µM (inactive) | > 100 µM (inactive) |
| CCOC(=O)C(C)NC(=O)C(C)NC(=O)C(C)NC(=O)C(C)NC(=O)C(C)NC(=O)OCc1ccccc1 (centres undefined) | > 100 µM (inactive) | > 100 µM (inactive) | > 100 µM (inactive) | > 100 µM (inactive) | > 100 µM (inactive) | > 100 µM (inactive) | > 100 µM (inactive) | > 100 µM (inactive) | – | > 100 µM (inactive) | > 100 µM (inactive) | > 100 µM (inactive) | > 100 µM (inactive) | > 100 µM (inactive) | > 100 µM (inactive) | > 100 µM (inactive) | > 100 µM (inactive) | > 100 µM (inactive) | > 100 µM (inactive) | > 100 µM (inactive) |
| CC(C)(C)OC(=O)N[C@@H](Cc1ccccc1)C(=O)N1CC[C@@H](C(=O)N2[C@H]3CC4CC[C@@]3(CS2(=O)=O)C4(C)C)N1 | 97.3 µM (inactive) | > 100 µM (inactive) | > 100 µM (inactive) | 51.3 µM (inactive) | > 100 µM (inactive) | – | 82.6 µM (inactive) | 46.9 µM (inactive) | > 100 µM (inactive) | 61.7 µM (inactive) | 47.3 µM (inactive) | 45.7 µM (inactive) | 51.9 µM (inactive) | > 100 µM (inactive) | > 100 µM (inactive) | 64.9 µM (inactive) | – | 59.3 µM (inactive) | > 100 µM (inactive) | – |
| O=C(Nc1ccc(N2C(=O)CSC2c2ccccc2O)cc1)c1ccc(N2C(=O)CSC2c2ccccc2O)cc1 (centres undefined) | > 100 µM (inactive) | 23 µM (inactive) | 95.1 µM (inactive) | > 100 µM (inactive) | 55.6 µM (inactive) | 79.4 µM (inactive) | 57.9 µM (inactive) | > 100 µM (inactive) | 26.7 µM (inactive) | 84.7 µM (inactive) | 88.3 µM (inactive) | 43.3 µM (inactive) | 61 µM (inactive) | > 100 µM (inactive) | > 100 µM (inactive) | 35.6 µM (inactive) | 74 µM (inactive) | 51.3 µM (inactive) | – | 69.7 µM (inactive) |
| CC(=O)OC(=C(C#N)C#N)c1nccnc1C(C)=O | 4.2 µM (inactive) | > 20 µM (inactive) | 3.59 µM (inactive) | 11.2 µM (inactive) | 5.77 µM (inactive) | > 20 µM (inactive) | – | 4.55 µM (inactive) | > 20 µM (inactive) | > 20 µM (inactive) | – | > 20 µM (inactive) | > 20 µM (inactive) | 11 µM (inactive) | > 20 µM (inactive) | > 20 µM (inactive) | – | > 20 µM (inactive) | 6.01 µM (inactive) | 7.24 µM (inactive) |
